Assay results reported in patent US20060211761A1, “Hmg-coa-reductase inhibitors” (priority 2002, published 2006).
Structures can show the parent of a compound that is named as a salt.

Each compound was assayed against HMG-CoA reductase (assay: in-vitro HMG-CoA reductase enzyme assay ([14C]mevalonate formation, liver microsomes), Table 1). Details: preincubated 37° C. 30 minutes, [14C] HMG-CoA substrate.
Format: biochemical
Experimental: (§1) Res. Comm., 50, 859 (1973).
(§2) HMG-CoA reductase is regarded as a rate-limiting enzyme in cholesterol biosynthesis, catalyzing the following reaction: [^14C]HMG-CoA+2NADPH+2H+[^14C]mevanolate+CoA+2NADP+microsomes, utilizing 2.5 mM [^14C] HMG-CoA as a substrate.
(§3) The reaction was carried out in presence of 100 mM KH2PO4, 20 mM G-6-P, 2.5 mM NADPH, 10 mM EDTA, 5 mM DTT and […], at 37° C. for 15 minutes and quantitating [^14C] mevalonate as an end product.

Structure (SMILES)	IC50
COc1cc(NC(=O)c2c(-c3ccccc3)c(-c3ccc(F)cc3)n(CC[C@@H](O)C[C@@H](O)CC(=O)O)c2C(C)C)cc(OC)c1 [Example 1, 7-[3-(3,5-dimethoxyphenylcarbamoyl)-5-(4-fluorophenyl)-2-(1-methylethyl)4-phenyl-pyrrol-1-yl]-3R,5R-dihydroxy-heptanoic acid calcium salt]	0.022 nM
COc1ccc(NC(=O)c2c(-c3ccccc3)c(-c3ccc(F)cc3)n(CC[C@@H](O)C[C@@H](O)CC(=O)O)c2C2CC2)c(OC)c1 [S.No. 3, 7-[3-(2,4-dimethoxyphenylcarbamoyl)-5-(4-fluorophenyl)-2-(cyclopropyl)-4-phenyl-pyrrol-1-yl]-3R,5R-dihydroxy-heptanoic acid calcium salt]	0.00948 nM
COc1ccc(NC(=O)c2c(-c3ccccc3)c(-c3ccccc3)n(CC[C@@H](O)C[C@@H](O)CC(=O)O)c2C(C)C)c(OC)c1 [S.No. 5, 7-[3-(2.4-dimethoxyphenylcarbamoyl)-4.5-diphenyl-2-(1-methylethyl-pyrrol-1-yl]-3R,5R-dihydroxy-heptanoic acid calcium salt]	0.0563 nM

What follows are compounds tested against HMG CoA Reductase (assay: HMG CoA reductase inhibition, similar experiments with phenylhydroxy compounds of U.S. Pat. No. 5,385,929, Table 2). Details: compared to atorvastatin.
Format: biochemical
Experimental: as §1, §2, §3

IC50	Structure (SMILES)
0.476 nM	CC(C)c1c(C(=O)Nc2ccc(O)cc2)c(-c2ccccc2)c(-c2ccc(F)cc2)n1CC[C@@H](O)C[C@@H](O)CC(=O)O [Para-hydroxyatorvastatin]
0.264 nM	CC(C)c1c(C(=O)Nc2ccccc2O)c(-c2ccccc2)c(-c2ccc(F)cc2)n1CC[C@@H](O)C[C@@H](O)CC(=O)O [Ortho-hydroxyatorvastatin]
0.199 nM	CC(C)c1c(C(=O)Nc2cccc(O)c2)c(-c2ccccc2)c(-c2ccc(F)cc2)n1CCC(O)CC(O)CC(=O)O (stereo not drawn) [Meta-hydroxyatorvastatin]
